The record followed here is US12304890B2, “R-type pyridyloxycarboxylic acid, salt and ester derivative thereof, and preparation method therefor, and herbicidal composition and application thereof” (Qingdao Kingagroot Chemical Compound Co., Ltd., priority 2018, dated 2025).

What all share (format): in vivo
The test system of assay [1] is Echinochloa crusgalli. The assay is described as follows: Post-emergence test experiment, Echinochloa crusgalli. As to conditions: 1000 g a.i./ha, 3 weeks in greenhouse, fresh weight inhibition. A digest of the protocol:
(§1)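 Greenhouse-grown plants sprayed at the 2-3 leaf stage, 2 weeks after sowing, with compound in acetone/tween-80 diluted in water plus 1.5 L/ha methyl oleate emulsifiable concentrate as synergist. Effect scored 3 weeks later as fresh weight inhibition rate.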

Assay [2] has as its system Digitaria sanguinalis. Put plainly: Post-emergence test experiment, Digitaria sanguinalis. As to conditions: 1000 g a.i./ha, 3 weeks in greenhouse, fresh weight inhibition. Summed up:
as §1

Assay [3] concerns Monocotyledonous and dicotyledonous weed seeds and main crop seeds. The assay is described as follows: Post-emergence test experiment, other weeds and crops (Table 4, 1000 g a.i./ha). As to conditions: 3 weeks in greenhouse, fresh weight inhibition. Summed up:
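Weed and crop seeds (wheat, corn, rice, soybean, cotton, oilseed, millet, sorghum) sown in soil pots in a greenhouse and sprayed at 2-3 leaf stage, 2 weeks after sowing. Compound in acetone/tween-80 with methyl oleate concentrate (1.5 L/ha) as synergist. Effect recorded as fresh-weight growth inhibition rate.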

Take `COc1ccc(SC(=O)C(C)Oc2nc(F)c(Cl)c(N)c2Cl)cc1` (stereo not shown) [Compound 2-358]: the “Activity level (growth inhibition rate), Echinochloa crusgalli” value in assay [1] was 5 (Level 5: the growth inhibition rate is greater than 85%). Besides, the “Activity level (growth inhibition rate), Digitaria sanguinalis” value in assay [2] is 5 (Level 5: the growth inhibition rate is greater than 85%). For the same compound, in assay [3], the “Activity level (growth inhibition rate), Abutilon theophrasti Medic.” value is listed as 5 (Level 5: the growth inhibition rate is greater than 85%); the “Activity level (growth inhibition rate), Galium aparine” value is on record as 5 (Level 5: the growth inhibition rate is greater than 85%); the “Activity level (growth inhibition rate), Monochoria Vaginalis” value is 5 (Level 5: the growth inhibition rate is greater than 85%).
For the compound `CCNc1c(Cl)c(F)nc(O[C@H](C)C(=O)SC)c1Cl` [Compound 2-376], the “Activity level (growth inhibition rate), Echinochloa crusgalli” value in assay [1] is reported as 5 (Level 5: the growth inhibition rate is greater than 85%). For the same compound, the “Activity level (growth inhibition rate), Digitaria sanguinalis” value in assay [2] is given as 5 (Level 5: the growth inhibition rate is greater than 85%). Also, in assay [3], the “Activity level (growth inhibition rate), Abutilon theophrasti Medic.” value is given as 5 (Level 5: the growth inhibition rate is greater than 85%); the “Activity level (growth inhibition rate), Galium aparine” value is on record as 5 (Level 5: the growth inhibition rate is greater than 85%); the “Activity level (growth inhibition rate), Monochoria Vaginalis” value is on record as 5 (Level 5: the growth inhibition rate is greater than 85%).
On to `CC(Oc1nc(F)c(Cl)c(N)c1Cl)C(=O)SCc1cccc(F)c1` (stereo not shown) [Compound 2-311], for which the “Activity level (growth inhibition rate), Echinochloa crusgalli” value in assay [1] was 5 (Level 5: the growth inhibition rate is greater than 85%). The “Activity level (growth inhibition rate), Digitaria sanguinalis” value in assay [2] was 5 (Level 5: the growth inhibition rate is greater than 85%). Moreover, in assay [3], the “Activity level (growth inhibition rate), Abutilon theophrasti Medic.” value was 5 (Level 5: the growth inhibition rate is greater than 85%); the “Activity level (growth inhibition rate), Galium aparine” value is recorded as 5 (Level 5: the growth inhibition rate is greater than 85%); the “Activity level (growth inhibition rate), Monochoria Vaginalis” value is reported as 5 (Level 5: the growth inhibition rate is greater than 85%).
Take `C[C@@H](Oc1nc(F)c(Cl)c(N)c1Cl)C(=O)SCc1ccccc1C#N` [Compound 2-334]: the “Activity level (growth inhibition rate), Echinochloa crusgalli” value in assay [1] is reported as 5 (Level 5: the growth inhibition rate is greater than 85%). For the same compound, the “Activity level (growth inhibition rate), Digitaria sanguinalis” value in assay [2] is on record as 5 (Level 5: the growth inhibition rate is greater than 85%). Further, in assay [3], the “Activity level (growth inhibition rate), Abutilon theophrasti Medic.” value was 5 (Level 5: the growth inhibition rate is greater than 85%); the “Activity level (growth inhibition rate), Galium aparine” value is reported as 5 (Level 5: the growth inhibition rate is greater than 85%); the “Activity level (growth inhibition rate), Monochoria Vaginalis” value is recorded as 5 (Level 5: the growth inhibition rate is greater than 85%).
Regarding `Cc1cccc(CSC(=O)C(C)Oc2nc(F)c(Cl)c(N)c2Cl)c1` (stereo not shown) [Compound 2-305], the “Activity level (growth inhibition rate), Echinochloa crusgalli” value in assay [1] is given as 5 (Level 5: the growth inhibition rate is greater than 85%). Also, the “Activity level (growth inhibition rate), Digitaria sanguinalis” value in assay [2] is 5 (Level 5: the growth inhibition rate is greater than 85%). For the same compound, in assay [3], the “Activity level (growth inhibition rate), Abutilon theophrasti Medic.” value is reported as 5 (Level 5: the growth inhibition rate is greater than 85%); the “Activity level (growth inhibition rate), Galium aparine” value is given as 5 (Level 5: the growth inhibition rate is greater than 85%); the “Activity level (growth inhibition rate), Monochoria Vaginalis” value is recorded as 5 (Level 5: the growth inhibition rate is greater than 85%).
With `CC(Oc1nc(F)c(Cl)c(N)c1Cl)C(=O)O.CCC(N)(CO)CO` (stereo not shown) [Compound 2-22], in assay [1], the “Activity level (growth inhibition rate), Echinochloa crusgalli” value is given as 5 (Level 5: the growth inhibition rate is greater than 85%). Further, the “Activity level (growth inhibition rate), Digitaria sanguinalis” value in assay [2] is recorded as 5 (Level 5: the growth inhibition rate is greater than 85%). Further, in assay [3], the “Activity level (growth inhibition rate), Abutilon theophrasti Medic.” value was 5 (Level 5: the growth inhibition rate is greater than 85%); the “Activity level (growth inhibition rate), Galium aparine” value is on record as 5 (Level 5: the growth inhibition rate is greater than 85%); the “Activity level (growth inhibition rate), Monochoria Vaginalis” value is listed as 5 (Level 5: the growth inhibition rate is greater than 85%).
For the compound `C[C@@H](Oc1nc(F)c(Cl)c(N)c1Cl)C(=O)OCc1ccc(C#N)cc1` [Compound 2-337], the “Activity level (growth inhibition rate), Echinochloa crusgalli” value in assay [1] is recorded as 5 (Level 5: the growth inhibition rate is greater than 85%). The “Activity level (growth inhibition rate), Digitaria sanguinalis” value in assay [2] was 5 (Level 5: the growth inhibition rate is greater than 85%). Also, in assay [3], the “Activity level (growth inhibition rate), Abutilon theophrasti Medic.” value was 5 (Level 5: the growth inhibition rate is greater than 85%); the “Activity level (growth inhibition rate), Galium aparine” value is 5 (Level 5: the growth inhibition rate is greater than 85%); the “Activity level (growth inhibition rate), Monochoria Vaginalis” value is reported as 5 (Level 5: the growth inhibition rate is greater than 85%).
On to `C[C@@H](Oc1nc(F)c(Cl)c(N)c1Cl)C(=O)Sc1ccc2ccccc2c1` [Compound 2-339], for which, in assay [1], the “Activity level (growth inhibition rate), Echinochloa crusgalli” value was 5 (Level 5: the growth inhibition rate is greater than 85%). Further, in assay [2], the “Activity level (growth inhibition rate), Digitaria sanguinalis” value is reported as 5 (Level 5: the growth inhibition rate is greater than 85%). Also, in assay [3], the “Activity level (growth inhibition rate), Abutilon theophrasti Medic.” value is reported as 5 (Level 5: the growth inhibition rate is greater than 85%); the “Activity level (growth inhibition rate), Galium aparine” value was 5 (Level 5: the growth inhibition rate is greater than 85%); the “Activity level (growth inhibition rate), Monochoria Vaginalis” value is recorded as 5 (Level 5: the growth inhibition rate is greater than 85%).
Regarding `COC(=O)[C@@H](C)Oc1ncc(Cl)c(N)c1C` [Compound 2-28], in assay [1], the “Activity level (growth inhibition rate), Echinochloa crusgalli” value is listed as 5 (Level 5: the growth inhibition rate is greater than 85%). The “Activity level (growth inhibition rate), Digitaria sanguinalis” value in assay [2] is 5 (Level 5: the growth inhibition rate is greater than 85%). In assay [3], the “Activity level (growth inhibition rate), Abutilon theophrasti Medic.” value is 5 (Level 5: the growth inhibition rate is greater than 85%); the “Activity level (growth inhibition rate), Galium aparine” value is 5 (Level 5: the growth inhibition rate is greater than 85%); the “Activity level (growth inhibition rate), Monochoria Vaginalis” value is listed as 5 (Level 5: the growth inhibition rate is greater than 85%).
With `CCCCCCCCCCCSC(=O)[C@@H](C)Oc1nc(F)c(Cl)c(N)c1Cl` [Compound 2-216], in assay [1], the “Activity level (growth inhibition rate), Echinochloa crusgalli” value is given as 5 (Level 5: the growth inhibition rate is greater than 85%). Besides, the “Activity level (growth inhibition rate), Digitaria sanguinalis” value in assay [2] was 5 (Level 5: the growth inhibition rate is greater than 85%). Moreover, in assay [3], the “Activity level (growth inhibition rate), Abutilon theophrasti Medic.” value is 5 (Level 5: the growth inhibition rate is greater than 85%); the “Activity level (growth inhibition rate), Galium aparine” value is listed as 5 (Level 5: the growth inhibition rate is greater than 85%); the “Activity level (growth inhibition rate), Monochoria Vaginalis” value is on record as 5 (Level 5: the growth inhibition rate is greater than 85%).
For the compound `COC(=O)[C@@H](C)Oc1nc(F)c(Cl)c(NCc2ccc(C(F)(F)F)o2)c1Cl` [Compound 2-387], the “Activity level (growth inhibition rate), Echinochloa crusgalli” value in assay [1] is 5 (Level 5: the growth inhibition rate is greater than 85%). Besides, the “Activity level (growth inhibition rate), Digitaria sanguinalis” value in assay [2] is 5 (Level 5: the growth inhibition rate is greater than 85%). Moreover, in assay [3], the “Activity level (growth inhibition rate), Abutilon theophrasti Medic.” value is 5 (Level 5: the growth inhibition rate is greater than 85%); the “Activity level (growth inhibition rate), Galium aparine” value is reported as 5 (Level 5: the growth inhibition rate is greater than 85%); the “Activity level (growth inhibition rate), Monochoria Vaginalis” value is reported as 5 (Level 5: the growth inhibition rate is greater than 85%).
